{"source": "patent US20080138391A1", "about": "“SKIN-FRIENDLY DRUG COMPLEXES FOR TRANSDERMAL ADMINISTRATION” (priority 2006, published 2008)", "test": "Appearance of the composition and solubilization of the drug", "type": "physicochemical", "method": "Following here is an exemplary description of the manufacturing process used to make the pharmaceutical compositions of the present invention. Generally, the active agent is introduced either alone or as a solution in a colloidal dispersion of carbomer. […] If desired, further ingredients such as cosolvents, buffering agents, antioxidants, preservatives, permeation enhancers, etc, as mentioned herein above were added under mechanical stirring."}
{"smiles": "CCCN(CCC)CCc1cccc2c1CC(=O)N2", "note": "[ropinirole free base, ropinirole]", "values": [{"measurement": "Amount of ropinirole free base solubilized in water as a result of complexation with carbomer", "setting": "complexation with carbomer, alcohol-free", "value": "at least 3.00 % w/w"}, {"measurement": "Solubility of ropinirole free base in water", "setting": "no complexation", "value": "practically insoluble in water"}]}
